Measurements published in article PMC7983974 (Basic & Clinical Pharmacology & Toxicology, 2020).

target: T1, UGT-mediated glucuronidation of molidustat (M1 formation) (Homo sapiens, UniProt P22309); assay: Inhibition of M1 formation from molidustat in pooled human liver microsomes; assay type: in vitro ADME; settings: human, pooled human liver microsomes, probe molidustat 5 µmol/L (formation of M1), IC50, pooled HLMs 0.3 mg/mL, N=1, Table 1
T1 sequence (P22309 26-533): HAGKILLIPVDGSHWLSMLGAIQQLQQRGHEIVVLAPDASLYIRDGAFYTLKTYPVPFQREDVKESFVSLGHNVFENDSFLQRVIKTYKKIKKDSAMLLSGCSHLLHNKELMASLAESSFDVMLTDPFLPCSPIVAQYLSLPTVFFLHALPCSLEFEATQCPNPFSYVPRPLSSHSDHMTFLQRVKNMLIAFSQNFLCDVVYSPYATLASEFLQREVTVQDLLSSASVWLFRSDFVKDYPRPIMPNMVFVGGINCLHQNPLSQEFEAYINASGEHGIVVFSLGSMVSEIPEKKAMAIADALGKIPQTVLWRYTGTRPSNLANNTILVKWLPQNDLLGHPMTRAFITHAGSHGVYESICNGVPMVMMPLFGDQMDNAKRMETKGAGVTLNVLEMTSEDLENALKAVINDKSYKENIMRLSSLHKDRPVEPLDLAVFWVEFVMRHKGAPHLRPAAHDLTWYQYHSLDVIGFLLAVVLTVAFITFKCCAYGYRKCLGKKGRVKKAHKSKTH

Going from CC#C[C@]1(O)CC[C@H]2[C@@H]3CCC4=CC(=O)CCC4=C3[C@@H](c3ccc(N(C)C)cc3)C[C@@]21C [Mifepristone] to COCC(=O)O[C@]1(CCN(C)CCCc2nc3ccccc3[nH]2)CCc2cc(F)ccc2[C@@H]1C(C)C [Mibefradil], the IC50 at 30 min rises from 1.4 µM to 20.2 µM (14-fold).

Going from COc1ccc(Cl)cc1C(=O)NCCc1ccc(S(=O)(=O)NC(=O)NC2CCCCC2)cc1 [Glibenclamide] to COc1cc(N)c(Cl)cc1C(=O)NC1CCN(CCCOc2ccc(F)cc2)CC1OC (centres unmarked) [Cisapride], the IC50 at 30 min falls from 6.3 µM to 4.1 µM (1.5-fold).

CN(CCOc1ccc(CC2SC(=O)NC2=O)cc1)c1ccccn1 (centres unmarked) [Rosiglitazone] and CCc1nn(CCCN2CCN(c3cccc(Cl)c3)CC2)c(=O)n1CCOc1ccccc1 [Nefazodone] are within 1.5-fold of each other in IC50 at 30 min: 10.7 µM for the first, 11.4 µM for the second.

Going from O=C(O)Cc1ccccc1Nc1c(Cl)cccc1Cl [Diclofenac] to O=C(O)c1cccnc1Nc1cccc(C(F)(F)F)c1 [Niflumic acid], the IC50 at 30 min falls from 38.2 µM to 14.6 µM (2.6-fold).

CC[C@H](C)C(=O)O[C@H]1CCC=C2C=C[C@H](C)[C@H](CC[C@@H]3C[C@@H](O)CC(=O)O3)[C@H]21 [Mevastatin] and CC[C@H](C)C(=O)O[C@H]1C[C@@H](C)C=C2C=C[C@H](C)[C@H](CC[C@@H]3C[C@@H](O)CC(=O)O3)[C@H]21 [Lovastatin] are within 1.5-fold of each other in IC50 at 30 min: 13.2 µM for the first, 10.5 µM for the second.

First: Cc1ncc2n1-c1ccc(Cl)cc1C(c1ccccc1F)=NC2 [Midazolam]
Second: COc1cc2ncnc(Nc3ccc(F)c(Cl)c3)c2cc1OCCCN1CCOCC1 [Gefitinib]
The IC50 at 30 min of the first is 6.2-fold higher: 11.1 µM for the first, 1.8 µM for the second.

Compared with Clc1ccccc1C(c1ccccc1)(c1ccccc1)n1ccnc1 [Clotrimazole], Cc1cccc(C)c1OCC(=O)N[C@@H](Cc1ccccc1)[C@@H](O)C[C@H](Cc1ccccc1)NC(=O)[C@H](C(C)C)N1CCCNC1=O [Lopinavir] is 7.8-fold lower in IC50 at 30 min: 10.2 µM for the first, 1.3 µM for the second.

Going from CC(C)(O)c1ccccc1CC[C@@H](SCC1(CC(=O)O)CC1)c1cccc(/C=C/c2ccc3ccc(Cl)cc3n2)c1 [Montelukast] to CCCc1nc2c(C)cc(-c3nc4ccccc4n3C)cc2n1Cc1ccc(-c2ccccc2C(=O)O)cc1 [Telmisartan], the IC50 at 30 min rises from 0.49 µM to 2.8 µM (5.7-fold).

Compared with Cc1nc(Nc2ncc(C(=O)Nc3c(C)cccc3Cl)s2)cc(N2CCN(CCO)CC2)n1 [Dasatinib], CCCc1nn(C)c2c(=O)[nH]c(-c3cc(S(=O)(=O)N4CCN(C)CC4)ccc3OCC)nc12 [Sildenafil] is 33-fold higher in IC50 at 30 min: 1.4 µM for the first, 46.2 µM for the second.

First: COc1cc(/C=C/C(=O)CC(=O)/C=C/c2ccc(O)c(OC)c2)ccc1O [Curcumin]
Second: O=C(O)c1cc(-c2ccc(F)cc2F)ccc1O [Diflunisal]
The IC50 at 30 min of the first is 34-fold lower: 2.2 µM for the first, 75.6 µM for the second.

First: Cc1ccc(-c2cc(C(F)(F)F)nn2-c2ccc(S(N)(=O)=O)cc2)cc1 [Celecoxib]
Second: CNC(=O)c1cc(Oc2ccc(NC(=O)Nc3ccc(Cl)c(C(F)(F)F)c3)cc2)ccn1 [Sorafenib]
The IC50 at 30 min of the first is 33-fold higher: 10.6 µM for the first, 0.32 µM for the second.

First: CC(=O)O[C@H]1C(=O)[C@@]2(C)[C@H]([C@H](OC(=O)c3ccccc3)[C@]3(O)C[C@H](OC(=O)[C@H](O)[C@@H](NC(=O)c4ccccc4)c4ccccc4)C(C)=C1C3(C)C)[C@]1(OC(C)=O)CO[C@@H]1C[C@@H]2O [Paclitaxel]
Second: C=CC[C@@H]1/C=C(\C)C[C@H](C)C[C@H](OC)[C@H]2O[C@@](O)(C(=O)C(=O)N3CCCC[C@H]3C(=O)O[C@H](/C(C)=C/[C@@H]3CC[C@@H](O)[C@H](OC)C3)[C@H](C)[C@@H](O)CC1=O)[C@H](C)C[C@@H]2OC [Tacrolimus]
The IC50 at 30 min of the first is 15-fold higher: 10.8 µM for the first, 0.7 µM for the second.

Going from Clc1ccc(COC(Cn2ccnc2)c2ccc(Cl)cc2Cl)c(Cl)c1 (centres unmarked) [Miconazole] to CS(=O)(=O)CCNCc1ccc(-c2ccc3ncnc(Nc4ccc(OCc5cccc(F)c5)c(Cl)c4)c3c2)o1 [Lapatinib], the IC50 at 30 min falls from 19.3 µM to 2.5 µM (7.7-fold).

First: Oc1cc(O)c2c(c1)O[C@H](c1cc(O)c(O)c(O)c1)[C@H](O)C2 [(‐)‐Epigallocatechin]
Second: O=C1C[C@@H](c2ccc(O)cc2)Oc2cc(O)cc(O)c21 [Naringenin]
The IC50 at 30 min of the first is 2.3-fold lower: 5.1 µM for the first, 11.6 µM for the second.

O=C1Nc2ccc(Cl)cc2[C@@](C#CC2CC2)(C(F)(F)F)O1 [Efavirenz] was tested, and the IC50 at 30 min was 8 µM.
